According to patent US20230406833A1, “HERBICIDAL MALONAMIDES” (BASF SE, priority 2020, published 2023):

Columns and labels:
Experiment in all cases: greenhouse post-emergence herbicidal test
Format in all cases: in vivo
Conditions in all cases: 0.32 kg/ha, scale from 0 to 100
[1] = system: Setaria viridis (SETVI)
Source text: (§1) The culture containers used were plastic flowerpots containing loamy sand with approximately 3.0% of humus as the substrate. The seeds of the test plants were sown separately for each species.
(§2) For the pre-emergence treatment, the active ingredients, which had been suspended or emulsified in water, were applied directly after sowing by means of finely distributing nozzles. The containers were irrigated gently to promote germination and growth and subsequently covered with transparent plastic hoods until the test plants had rooted. This cover caused uniform germination of the test plants, unless this had been impaired by the active ingredients. For the post-emergence treatment, the test plants were first grown to a height of 3 to 15 cm, depending on the plant habit, and only then treated with the active ingredients which had been suspended or emulsified in water. For this purpose, the test plants were either shown directly and grown in the same containers, or they were first grown separately as seedlings and transplanted into the test containers a few days prior to treatment.
(§3) Depending on the species, the test plants were kept at 10-25° C. or 20-35° C., respectively. The test period extended over 2 to 4 weeks. During this time, the test plants were tended, and their response to the individual treatments was evaluated.
(§4) Evaluation was carried out using a scale from 0 to 100. 100 means no emergence of the test plants, or complete destruction of at least the aerial moieties, and 0 means no damage, or normal course of growth. A good herbicidal activity is given at values of 70 to <90 and a very good herbicidal activity is given at values of 90 to 100.
(§5) The test plants used in the greenhouse experiments were of the following species: […]

[2] = system: Echinocloa crus-galli (ECHCG)
Source text: as §1, §2, §3, §4, §5

[3] = system: Fallopia convolvulus (POLCO)
Source text: as §1, §2, §3, §4, §5

CC(C)OC(=O)C1C=CC(NC(=O)C2(C(=O)Nc3cc(F)cc(F)c3)CCO2)C1 (mixture of isomers) [I.4]
herbicidal activity against SETVI [1]: very good (a very good herbicidal activity is given at values of 90 to 100) | herbicidal activity against ECHCG [2]: very good (a very good herbicidal activity is given at values of 90 to 100) | herbicidal activity against POLCO [3]: very good (a very good herbicidal activity is given at values of 90 to 100)
